Results reported in article PMC5218480 (PLoS ONE, 2017).

System: MV-4-11 cells
Assay: Gene expression microarray analysis (Affymetrix PrimeView) and GSEA
Type: cell-based, human
Design: RFU PODN (11730768_x_at) / Fold change /veh PODN (11730768_x_at) / RFU LINC00158 (11744669_a_at) / Fold change /veh LINC00158 (11744669_a_at) / RFU DUSP10 (11751237_a_at) / Fold change /veh DUSP10 (11751237_a_at) / RFU ID3 (11757404_x_at) / Fold change /veh ID3 (11757404_x_at) / RFU PLEKHG5 (11737974_s_at) / Fold change /veh PLEKHG5 (11737974_s_at) / RFU LRRC4B (11730491_at) / Fold change /veh LRRC4B (11730491_at) / RFU GIMAP4 (11747438_a_at) / Fold change /veh GIMAP4 (11747438_a_at) / RFU KRT8 (11758183_x_at) / Fold change /veh KRT8 (11758183_x_at) / RFU CNN1 (11734310_a_at) / Fold change /veh CNN1 (11734310_a_at) / RFU VPS37D (11726825_at) / Fold change /veh VPS37D (11726825_at) / RFU C10orf10 (11716522_x_at) / Fold change /veh C10orf10 (11716522_x_at) / RFU KIR2DL2 /// KIR2DL4 /// KIR2DL5A /// KIR2DL5B /// KIR2DS1 /// KIR2DS2 /// KIR2DS3 /// KIR2DS4 /// KIR3DL3 /// KIR3DL3 /// KIR3DS1 (11738374_at) / Fold change /veh KIR2DL2 /// KIR2DL4 /// KIR2DL5A /// KIR2DL5B /// KIR2DS1 /// KIR2DS2 /// KIR2DS3 /// KIR2DS4 /// KIR3DL3 /// KIR3DL3 /// KIR3DS1 (11738374_at) / RFU C1QL1 (11718748_at) / Fold change /veh C1QL1 (11718748_at) / RFU TMPRSS4 (11747572_a_at) / Fold change /veh TMPRSS4 (11747572_a_at) / RFU HAMP (11756126_x_at) / Fold change /veh HAMP (11756126_x_at) / RFU RNFT2 (11725882_a_at) / Fold change /veh RNFT2 (11725882_a_at) / RFU NR4A2 (11747474_a_at) / Fold change /veh NR4A2 (11747474_a_at) / RFU ABCC12 (11746883_a_at) / Fold change /veh ABCC12 (11746883_a_at) / RFU TMEM136 (11760407_x_at) / Fold change /veh TMEM136 (11760407_x_at) / RFU CLDN22 /// WWC2 (11732394_at) / Fold change /veh CLDN22 /// WWC2 (11732394_at) / RFU HLA-DPB1 (11760878_x_at) / Fold change /veh HLA-DPB1 (11760878_x_at) / RFU SPINT1 (11716480_a_at) / Fold change /veh SPINT1 (11716480_a_at) / RFU GAP43 (11754022_s_at) / Fold change /veh GAP43 (11754022_s_at) / RFU A4GNT (11735810_at) / Fold change /veh A4GNT (11735810_at) / RFU PRB3 (11715151_x_at) / Fold change /veh PRB3 (11715151_x_at) / RFU TUBB4B (11761932_at) / Fold change /veh TUBB4B (11761932_at) / RFU CAPN14 (11732068_a_at) / Fold change /veh CAPN14 (11732068_a_at) / RFU TMCC2 (11721928_a_at) / Fold change /veh TMCC2 (11721928_a_at) / RFU IRGQ (11745062_a_at) / Fold change /veh IRGQ (11745062_a_at) / RFU FAM174B (11720279_a_at) / Fold change /veh FAM174B (11720279_a_at) / RFU TMPRSS4 (11748680_a_at) / Fold change /veh TMPRSS4 (11748680_a_at) / RFU FAM212B (11763350_a_at) / Fold change /veh FAM212B (11763350_a_at) / RFU PLEKHG5 (11743358_a_at) / Fold change /veh PLEKHG5 (11743358_a_at) / RFU ZSCAN30 (11745921_a_at) / Fold change /veh ZSCAN30 (11745921_a_at) / RFU CMKLR1 (11741424_a_at) / Fold change /veh CMKLR1 (11741424_a_at) / RFU LOC101060620 /// MAPK8IP1 (11723275_at) / Fold change /veh LOC101060620 /// MAPK8IP1 (11723275_at) / RFU SPTSSB (11747773_x_at) / Fold change /veh SPTSSB (11747773_x_at) / RFU PRSS12 (11739890_at) / Fold change /veh PRSS12 (11739890_at) / RFU BIN1 (11741810_x_at) / Fold change /veh BIN1 (11741810_x_at) / RFU WNT11 (11732464_a_at) / Fold change /veh WNT11 (11732464_a_at) / RFU C10orf10 (11716521_a_at) / Fold change /veh C10orf10 (11716521_a_at) / RFU C5orf56 (11738089_at) / Fold change /veh C5orf56 (11738089_at) / RFU CYB561 (11721691_x_at) / Fold change /veh CYB561 (11721691_x_at) / RFU ANKRD19P (11752326_a_at) / Fold change /veh ANKRD19P (11752326_a_at) / RFU OR2T12 /// OR2T33 /// OR2T8 (11738714_s_at) / Fold change /veh OR2T12 /// OR2T33 /// OR2T8 (11738714_s_at) / RFU VCAN (11748164_a_at) / Fold change /veh VCAN (11748164_a_at) / RFU JSRP1 (11732532_at) / Fold change /veh JSRP1 (11732532_at) / RFU KRTAP10-11 (11738290_x_at) / Fold change /veh KRTAP10-11 (11738290_x_at) / RFU MYO3A (11730013_a_at) / Fold change /veh MYO3A (11730013_a_at) / RFU EBF3 (11725865_a_at) / Fold change /veh EBF3 (11725865_a_at) / RFU CAMK2N1 (11719241_x_at) / Fold change /veh CAMK2N1 (11719241_x_at) / RFU C5orf56 (11738088_a_at) / Fold change /veh C5orf56 (11738088_a_at) / RFU OLFML3 (11715873_a_at) / Fold change /veh OLFML3 (11715873_a_at) / RFU LOC100653217 /// NTM (11731650_a_at) / Fold change /veh LOC100653217 /// NTM (11731650_a_at) / RFU MAPK11 (11762145_a_at) / Fold change /veh MAPK11 (11762145_a_at) / RFU FIZ1 (11724087_x_at) / Fold change /veh FIZ1 (11724087_x_at) / RFU OASL (11726364_x_at) / Fold change /veh OASL (11726364_x_at) / RFU SOX15 (11748057_x_at) / Fold change /veh SOX15 (11748057_x_at) / RFU CD79A (11719716_a_at) / Fold change /veh CD79A (11719716_a_at) / RFU HIST1H1D (11736915_at) / Fold change /veh HIST1H1D (11736915_at) / RFU CASKIN2 (11723855_a_at) / Fold change /veh CASKIN2 (11723855_a_at) / RFU LOC730098 (11760151_x_at) / Fold change /veh LOC730098 (11760151_x_at) / RFU OR4N2 (11742367_at) / Fold change /veh OR4N2 (11742367_at) / RFU PRRT2 (11749266_a_at) / Fold change /veh PRRT2 (11749266_a_at) / RFU SNX32 (11753110_a_at) / Fold change /veh SNX32 (11753110_a_at) / RFU CDHR5 (11726645_a_at) / Fold change /veh CDHR5 (11726645_a_at) / RFU RCAN1 (11760418_a_at) / Fold change /veh RCAN1 (11760418_a_at) / RFU FAM167A (11723789_a_at) / Fold change /veh FAM167A (11723789_a_at) / RFU FAM26E (11764081_at) / Fold change /veh FAM26E (11764081_at) / RFU ISYNA1 (11749810_s_at) / Fold change /veh ISYNA1 (11749810_s_at) / RFU ACY1 (11761880_at) / Fold change /veh ACY1 (11761880_at) / RFU 11764098_at / Fold change /veh 11764098_at / RFU SAMD14 (11745864_x_at) / Fold change /veh SAMD14 (11745864_x_at) / RFU NPB (11741838_a_at) / Fold change /veh NPB (11741838_a_at) / RFU TMPRSS6 (11731388_a_at) / Fold change /veh TMPRSS6 (11731388_a_at) / RFU KRTAP10-2 (11738614_at) / Fold change /veh KRTAP10-2 (11738614_at) / RFU ARHGAP8 /// PRR5-ARHGAP8 (11727945_x_at) / Fold change /veh ARHGAP8 /// PRR5-ARHGAP8 (11727945_x_at) / RFU KRTAP5-7 /// NADSYN1 (11734609_at) / Fold change /veh KRTAP5-7 /// NADSYN1 (11734609_at) / RFU RASL12 (11751679_a_at) / Fold change /veh RASL12 (11751679_a_at) / RFU CDKN2B (11736163_a_at) / Fold change /veh CDKN2B (11736163_a_at) / RFU PRF1 (11729649_at) / Fold change /veh PRF1 (11729649_at) / RFU, ZNF638 /// ZNF638-IT1 / Fold change vs veh, ZNF638 /// ZNF638-IT1 / RFU, PANK3 / Fold change vs veh, PANK3 / RFU, SH3YL1 / Fold change vs veh, SH3YL1 / RFU, ZEB2 / Fold change vs veh, ZEB2 / RFU, NRIP1 / Fold change vs veh, NRIP1 / RFU, PTTG1IP / Fold change vs veh, PTTG1IP / RFU, CAPN2 / Fold change vs veh, CAPN2 / RFU, MED14 / Fold change vs veh, MED14 / RFU, SNORA58 / Fold change vs veh, SNORA58 / RFU, C1orf63 / Fold change vs veh, C1orf63 / RFU, LRRFIP1 / Fold change vs veh, LRRFIP1 / RFU, NDUFAF7 / Fold change vs veh, NDUFAF7 / RFU, SLC12A2 / Fold change vs veh, SLC12A2 / RFU, IBTK / Fold change vs veh, IBTK / RFU, ESF1 / Fold change vs veh, ESF1 / Fold change vs veh, TMEM50B / RFU, TAOK1 / Fold change vs veh, TAOK1 / RFU, ACBD3 / Fold change vs veh, ACBD3 / RFU, TMA16 / Fold change vs veh, TMA16 / RFU, RWDD3 / Fold change vs veh, RWDD3 / RFU, BCAT1 / Fold change vs veh, BCAT1 / RFU, EDEM3 / Fold change vs veh, EDEM3 / RFU, TMEM33 / Fold change vs veh, TMEM33 / RFU, WDR75 / Fold change vs veh, WDR75 / RFU, AHCTF1 / Fold change vs veh, AHCTF1 / RFU, TFRC / Fold change vs veh, TFRC / RFU, ZDHHC17 / Fold change vs veh, ZDHHC17 / RFU, NOM1 / Fold change vs veh, NOM1 / RFU, ARL8B / Fold change vs veh, ARL8B / RFU, ZBTB11 / Fold change vs veh, ZBTB11 / RFU, TAMM41 / Fold change vs veh, TAMM41 / RFU, KIAA1704 /// LOC100996395 / Fold change vs veh, KIAA1704 /// LOC100996395 / RFU, ING1 / Fold change vs veh, ING1 / RFU, TRMT61B / Fold change vs veh, TRMT61B / RFU, FUBP3 / Fold change vs veh, FUBP3 / RFU, TP53 / Fold change vs veh, TP53 / RFU, TNKS2 / Fold change vs veh, TNKS2 / RFU, ZFP14 / Fold change vs veh, ZFP14 / RFU, ACTR2 / Fold change vs veh, ACTR2 / RFU, PPP3R1 / Fold change vs veh, PPP3R1 / RFU, PIK3R1 / Fold change vs veh, PIK3R1 / RFU, HNRNPA1 / Fold change vs veh, HNRNPA1 / RFU, RNF170 / Fold change vs veh, RNF170 / RFU, ZNF28 / Fold change vs veh, ZNF28 / RFU, RNGTT / Fold change vs veh, RNGTT / RFU, OGT / Fold change vs veh, OGT / RFU, BRD1 / Fold change vs veh, BRD1 / RFU, MARS / Fold change vs veh, MARS / RFU, ZNF655 / Fold change vs veh, ZNF655 / RFU, FAHD1 / Fold change vs veh, FAHD1 / RFU, BDP1 / Fold change vs veh, BDP1 / RFU, LRRCC1 / Fold change vs veh, LRRCC1 / RFU, ARID1A / Fold change vs veh, ARID1A / RFU, ZNF146 / Fold change vs veh, ZNF146 / RFU, ZNF330 / Fold change vs veh, ZNF330 / RFU, GPN3 / Fold change vs veh, GPN3 / RFU, C9orf123 / Fold change vs veh, C9orf123 / RFU, N4BP2L2 / Fold change vs veh, N4BP2L2 / RFU, ARFIP1 / Fold change vs veh, ARFIP1 / RFU, FAM179B / Fold change vs veh, FAM179B / RFU, BCL10 / Fold change vs veh, BCL10 / RFU, UHRF1BP1L / Fold change vs veh, UHRF1BP1L / RFU, BET1 / Fold change vs veh, BET1 / RFU, CNOT2 / Fold change vs veh, CNOT2 / RFU, ZNF268 / Fold change vs veh, ZNF268 / Fold change vs veh, ZNF507 / RFU, DGCR2 / Fold change vs veh, DGCR2 / RFU, WDSUB1 / Fold change vs veh, WDSUB1 / Fold change vs veh, HSP90B1 /// MIR3652 / RFU, ADSS / Fold change vs veh, ADSS / RFU, GK / Fold change vs veh, GK / RFU, ZNF148 / Fold change vs veh, ZNF148 / RFU, TAF9 / Fold change vs veh, TAF9 / RFU, SLC1A5 / Fold change vs veh, SLC1A5 / RFU, SLMO2 / Fold change vs veh, SLMO2 / RFU, ABCC4 / Fold change vs veh, ABCC4 / RFU, LOC101060439 /// RAP1B / Fold change vs veh, LOC101060439 /// RAP1B / RFU, RFX7 / Fold change vs veh, RFX7 / RFU, GTPBP10 / Fold change vs veh, GTPBP10 / RFU, CNEP1R1 / Fold change vs veh, CNEP1R1 / RFU, BIVM-ERCC5 /// ERCC5 / Fold change vs veh, BIVM-ERCC5 /// ERCC5 / RFU, ILF3 / Fold change vs veh, ILF3 / RFU 11762660_at / Fold change /veh 11762660_at / RFU VCAN (11757783_s_at) / Fold change /veh VCAN (11757783_s_at) / RFU DDX43 (11728927_at) / Fold change /veh DDX43 (11728927_at) / RFU KRT8 (11758188_x_at) / Fold change /veh KRT8 (11758188_x_at) / RFU NKD1 (11759106_at) / Fold change /veh NKD1 (11759106_at) / RFU SRD5A1 (11742802_a_at) / Fold change /veh SRD5A1 (11742802_a_at) / RFU TPSAB1 /// TPSB2 (11721975_s_at) / Fold change /veh TPSAB1 /// TPSB2 (11721975_s_at) / RFU GSTM3 (11746129_a_at) / Fold change /veh GSTM3 (11746129_a_at) / RFU IL23R (11737362_x_at) / Fold change /veh IL23R (11737362_x_at) / RFU TMEM51 (11727254_a_at) / Fold change /veh TMEM51 (11727254_a_at) / RFU PIWIL2 (11732686_x_at) / Fold change /veh PIWIL2 (11732686_x_at) / RFU ORM1 (11744905_x_at) / Fold change /veh ORM1 (11744905_x_at) / RFU CCDC152 (11743942_at) / Fold change /veh CCDC152 (11743942_at) / RFU ECM1 (11717891_a_at) / Fold change /veh ECM1 (11717891_a_at) / RFU IL23R (11748794_a_at) / Fold change /veh IL23R (11748794_a_at) / RFU TNFAIP8L3 (11732012_x_at) / Fold change /veh TNFAIP8L3 (11732012_x_at) / RFU MBOAT4 (11741988_at) / Fold change /veh MBOAT4 (11741988_at) / RFU 11764193_at / Fold change /veh 11764193_at / RFU TMEM53 (11763286_at) / Fold change /veh TMEM53 (11763286_at) / RFU MAGEB2 (11727129_at) / Fold change /veh MAGEB2 (11727129_at) / RFU TMEM200A (11744735_a_at) / Fold change /veh TMEM200A (11744735_a_at) / RFU CCDC152 (11751479_a_at) / Fold change /veh CCDC152 (11751479_a_at) / RFU FAM211A (11726209_a_at) / Fold change /veh FAM211A (11726209_a_at) / RFU RGS16 (11746705_a_at) / Fold change /veh RGS16 (11746705_a_at) / RFU VCAN (11755009_s_at) / Fold change /veh VCAN (11755009_s_at) / RFU RHOB (11743442_s_at) / Fold change /veh RHOB (11743442_s_at) / RFU RGS16 (11720943_a_at) / Fold change /veh RGS16 (11720943_a_at) / RFU RGS16 (11720944_at) / Fold change /veh RGS16 (11720944_at) / RFU, VPS4B / Fold change vs veh, VPS4B / RFU, CREB1 / Fold change vs veh, CREB1 / RFU, DNAJC13 / Fold change vs veh, DNAJC13 / RFU, GNAQ / Fold change vs veh, GNAQ / RFU, CDK5R1 / Fold change vs veh, CDK5R1 / RFU, ZRANB3 / Fold change vs veh, ZRANB3 / RFU, CUL4A / Fold change vs veh, CUL4A / RFU, CCNY / Fold change vs veh, CCNY / RFU, UFL1 / Fold change vs veh, UFL1 / RFU, COG3 / Fold change vs veh, COG3 / RFU, DIAPH2 / Fold change vs veh, DIAPH2 / RFU, SKA2 / Fold change vs veh, SKA2 / RFU, AFF3 / Fold change vs veh, AFF3 / RFU, LMF1 / Fold change vs veh, LMF1 / RFU, IPO11 / Fold change vs veh, IPO11 / RFU, DFFB / Fold change vs veh, DFFB / RFU, FOXP1 / Fold change vs veh, FOXP1 / RFU, CARD8 / Fold change vs veh, CARD8 / RFU, STRN3 / Fold change vs veh, STRN3 / RFU, ADK / Fold change vs veh, ADK / RFU, RASSF2 / Fold change vs veh, RASSF2 / RFU, WIPF1 / Fold change vs veh, WIPF1 / RFU, LARP1B / Fold change vs veh, LARP1B / RFU, RASA1 / Fold change vs veh, RASA1 / RFU, RB1 / Fold change vs veh, RB1 / RFU, PPFIA1 / Fold change vs veh, PPFIA1 / RFU, MAT2A / Fold change vs veh, MAT2A / RFU, CCT5 / Fold change vs veh, CCT5 / RFU, WDR92 / Fold change vs veh, WDR92 / RFU, CUX1 / Fold change vs veh, CUX1 / RFU, TTC7A / Fold change vs veh, TTC7A / RFU, TMEM135 / Fold change vs veh, TMEM135 / RFU, DEPTOR / Fold change vs veh, DEPTOR / RFU, CPM / Fold change vs veh, CPM / RFU, DNAJB6 / Fold change vs veh, DNAJB6 / RFU, CACNA2D3 / Fold change vs veh, CACNA2D3 / RFU, DTX4 / Fold change vs veh, DTX4 / RFU, TFCP2 / Fold change vs veh, TFCP2 / RFU, GMCL1 /// GMCL1P1 / Fold change vs veh, GMCL1 /// GMCL1P1 / RFU, AEBP2 / Fold change vs veh, AEBP2 / RFU, SNHG1 /// SNORD22 /// SNORD25 /// SNORD26 /// SNORD27 /// SNORD28 /// SNORD29 /// SNORD31 / Fold change vs veh, SNHG1 /// SNORD22 /// SNORD25 /// SNORD26 /// SNORD27 /// SNORD28 /// SNORD29 /// SNORD31 / Fold change (Aza/veh), C12orf56 (ProbeSet 11735607_a_at) / Fold change (ACY-1035/veh), C12orf56 (ProbeSet 11735607_a_at) / Fold change (Aza/veh), FGFR1OP (ProbeSet 11751329_s_at) / Fold change (ACY-1035/veh), FGFR1OP (ProbeSet 11751329_s_at) / Fold change (Aza/veh), VPS36 (ProbeSet 11739960_a_at) / Fold change (ACY-1035/veh), VPS36 (ProbeSet 11739960_a_at) / RFU SYPL1 (11715823_x_at) / Fold change /veh SYPL1 (11715823_x_at) / RFU IGFBP7 (11715501_s_at) / Fold change /veh IGFBP7 (11715501_s_at) / RFU REEP3 (11722064_at) / Fold change /veh REEP3 (11722064_at) / RFU IGLL1 (11728026_x_at) / Fold change /veh IGLL1 (11728026_x_at): dose or concentration left out as unconfirmed
Details: MV-4-11 cells, 48 hours

Structure (SMILES): Nc1ncn([C@@H]2O[C@H](CO)[C@@H](O)[C@H]2O)c(=O)n1 [azacitidine]
- Fold change /veh SPTSSB (11747773_x_at): 1.09
